Measured values reported in patent publication US11028051B2, “Tetrahydroquinoline-based bromodomain inhibitors” (St. Jude Children's Research Hospital, priority 2016, dated 2021).

Key:
Experiment in all cases: competitive TR-FRET assay, BET-BD with acetylated peptide ligand
Assay type in all cases: binding
BRD2-BD1 = BRD2-BD1 (Homo sapiens (Human), UniProt P25440); conditions: BRD2-BD1; Table 11 additional modifications; read-out: 2.1 EC50
Description: (§1) Inhibitor potency was determined using a competitive TR-FRET assay as detailed herein, measuring interaction of the respective BET-BD with an acetylated peptide ligand (Table 2).

BRD2-BD2 = BRD2-BD2 (Homo sapiens (Human), UniProt P25440); conditions: for EC50: BRD2-BD2, Table 11 additional modifications, read-out: 2.2 EC50; for 2.1/2.2: ratio of BRD2-BD1 EC50 to BRD2-BD2 EC50 (selectivity)
Sequence of BRD2-BD2 (P25440 344-453): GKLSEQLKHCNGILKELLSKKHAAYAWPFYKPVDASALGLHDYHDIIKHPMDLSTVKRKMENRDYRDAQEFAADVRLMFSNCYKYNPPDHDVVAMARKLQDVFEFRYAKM
Description: as §1

BRD3-BD1 = BRD3-BD1 (Homo sapiens (Human), UniProt Q15059); conditions: BRD3-BD1; Table 11 additional modifications; read-out: 3.1 EC50
Sequence of BRD3-BD1 (Q15059 34-140): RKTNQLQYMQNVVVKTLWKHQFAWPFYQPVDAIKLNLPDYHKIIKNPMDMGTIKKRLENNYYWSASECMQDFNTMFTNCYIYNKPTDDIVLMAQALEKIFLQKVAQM
Description: as §1

BRD4-BD1 = BRD4-BD1 (Homo sapiens (Human), UniProt O60885); conditions: BRD4-BD1; Table 11 additional modifications; read-out: 4.1 EC50
Description: as §1

BRD4-BD2 = BRD4-BD2 (Homo sapiens (Human), UniProt O60885); conditions: BRD4-BD2; Table 11 additional modifications; read-out: 4.2 EC50
Description: as §1

BRDT = BRDT (Homo sapiens, UniProt Q58F21); conditions: BRDT; Table 11 additional modifications; read-out: BRDT EC50
Description: as §1

Sequence of BRD2-BD1 (P25440 74-180): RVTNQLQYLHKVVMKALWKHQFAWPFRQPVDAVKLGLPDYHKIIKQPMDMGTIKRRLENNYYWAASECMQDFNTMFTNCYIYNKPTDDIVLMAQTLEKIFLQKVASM

| Structure (SMILES) | EC50 (BRD2-BD1) [µM] | EC50 (BRD2-BD2) [µM] | 2.1/2.2 (BRD2-BD2) | EC50 (BRD3-BD1) [µM] | EC50 (BRD4-BD1) [µM] | EC50 (BRD4-BD2) [µM] | EC50 (BRDT) [µM] |
| --- | --- | --- | --- | --- | --- | --- | --- |
| CC(=O)N1c2ccc(-c3ccc(Oc4ccccc4)cc3)cc2[C@H](NC(=O)OC(C)C)C[C@@H]1C [compound 61] | 13 | 2.1 | 6.2 | 8.8 | 11 | 14 | – |
| CC(=O)Nc1cccc(-c2ccc3c(c2)[C@H](NCc2ccccc2)C[C@H](C)N3C(C)=O)c1 [compound 63] | 13 | 2.4 | 1.0 | 6.9 | 13 | 7.6 | – |
| CC(=O)Nc1cccc(-c2ccc3c(c2)[C@H](NC(=O)c2ccc(F)cc2)C[C@H](C)N3C(C)=O)c1 [compound 68] | 70 | 10 | 6.9 | 41 | 80 | 20 | – |
| CC(=O)Nc1cccc(-c2ccc3c(c2)[C@H](NC(=O)c2ccc(C(F)(F)F)cc2)C[C@H](C)N3C(C)=O)c1 [compound 69] | 75 | 2.7 | 28 | 75 | 74 | 75 | – |
| CC(=O)Nc1cccc(-c2ccc3c(c2)[C@H](NCCCc2ccccc2)C[C@H](C)N3C(C)=O)c1 [compound 70] | 16 | 69 | 0.23 | 9.9 | 69 | 26 | – |
| COC(=O)c1ccc(N[C@@H]2C[C@H](C)N(C(C)=O)c3ccc(-c4cccc(NC(C)=O)c4)cc32)c(C)c1 [compound 160] | 2.2 | – | 44 | 3 | > 30 | – | 3.3 |
| COC(=O)c1ccc(N[C@@H]2C[C@H](C)N(C(C)=O)c3ccc(-c4cccc(NC(C)=O)c4)cc32)c(OC)c1 [compound 161] | 0.87 | 0.044 | 20 | > 30 | > 30 | – | 0.76 |
| CCCCOc1cccc(-c2ccc3c(c2)[C@H](Nc2ccc(C(=O)OC)cc2)C[C@H](C)N3C(C)=O)c1 [compound 164] | 22 | 0.22 | 100 | 30 | 57 | – | 32 |
| COC(=O)c1ccc(N[C@@H]2C[C@H](C)N(C(C)=O)c3ccc(-c4cccc(OCCN5CCOCC5)c4)cc32)cc1 [compound 166] | 0.13 | 0.02 | 6.5 | 0.15 | 0.64 | – | 0.28 |
| CCCOc1cccc(-c2ccc3c(c2)[C@H](Nc2ccccc2OC(F)(F)F)C[C@H](C)N3C(C)=O)c1 [compound 167] | > 70 | 2.1 | 16 | > 70 | > 70 | – | > 70 |
| CCCOc1cccc(-c2ccc3c(c2)[C@H](Nc2ccc(F)cc2OC)C[C@H](C)N3C(C)=O)c1 [compound 168] | 35 | 1.2 | 99 | 45 | > 57 | – | 39 |
| COc1cc(F)ccc1N[C@@H]1C[C@H](C)N(C(C)=O)c2ccc(-c3cc[nH]n3)cc21 [compound 170] | 3.1 | 0.14 | 6.5 | 14 | > 26 | – | 4.9 |
| CC(=O)N1c2ccc(-c3cc[nH]n3)cc2[C@H](Nc2ccccc2OC(F)(F)F)C[C@@H]1C [compound 171] | > 53 | 0.44 | 140 | 23 | 31 | – | > 53 |
| CC(=O)N1c2ccc(-c3ccn(C)n3)cc2[C@H](Nc2ccccc2OC(F)(F)F)C[C@@H]1C [compound 172] | 8.2 | 0.64 | 6.3 | 12 | 17 | – | 12 |
| COc1cc(F)ccc1N[C@@H]1C[C@H](C)N(C(C)=O)c2ccc(-c3ccn(C)n3)cc21 [compound 173] | 1.4 | 0.17 | 8.2 | 1.5 | 3.8 | – | 2 |
| CC(=O)Nc1cccc(-c2ccc3c(c2)[C@H](Nc2ccc(C(=O)N(C)C)cc2)C[C@H](C)N3C(C)=O)c1 [compound 174] | 0.9 | 0.04 | 58 | 1.1 | > 15 | – | 1.2 |
| CC(=O)Nc1cccc(-c2ccc3c(c2)[C@H](Nc2ccc(S(=O)(=O)N(C)C)cc2)C[C@H](C)N3C(C)=O)c1 [compound 175] | 2.7 | 0.1 | 27 | 1.7 | 5.5 | – | 2.9 |
| CC(=O)Nc1cccc(-c2ccc3c(c2)[C@H](Nc2ccc(C(=O)OC(C)(C)C)cc2)C[C@H](C)N3C(C)=O)c1 [compound 176] | 10 | 0.75 | 30 | 8.5 | 16 | – | 13 |

The remaining lines, values ahead:

| EC50 (BRD2-BD1) [µM] | EC50 (BRD2-BD2) [µM] | 2.1/2.2 (BRD2-BD2) | EC50 (BRD3-BD1) [µM] | EC50 (BRD4-BD1) [µM] | EC50 (BRD4-BD2) [µM] | EC50 (BRDT) [µM] | Structure (SMILES) |
| --- | --- | --- | --- | --- | --- | --- | --- |
| 0.73 | 0.11 | 6.6 | 0.25 | 1.88 | 0.64 | – | CC(=O)N1c2ccc(-c3cccc(N)c3)cc2[C@H](NC(=O)OC(C)C)C[C@@H]1C [compound 2] |
| 5.8 | 0.85 | 6.8 | 2.3 | > 67.8 | > 67.8 | – | COc1cccc(-c2ccc3c(c2)[C@H](NC(=O)OC(C)C)C[C@H](C)N3C(C)=O)c1 [compound 3] |
| 1.5 | 0.79 | 1.9 | 1.4 | 2.9 | 0.73 | – | CC(=O)N1c2ccc(-c3ccc(N(C)C)cc3)cc2[C@H](NC(=O)OC(C)C)C[C@@H]1C [compound 57] |
| 7.7 | 1.1 | 7.0 | 5.2 | > 96 | 6.2 | – | CC(=O)N1c2ccc(-c3cccc([N+](=O)[O-])c3)cc2[C@H](NC(=O)OC(C)C)C[C@@H]1C [compound 58] |
| 3.6 | 1.2 | 2.9 | 1.9 | 3.5 | 2.1 | – | COc1ccc(-c2ccc3c(c2)[C@H](NC(=O)OC(C)C)C[C@H](C)N3C(C)=O)cc1 [compound 59] |
| 15 | 2.9 | 5.3 | 11 | > 50 | 14 | – | COc1ccccc1-c1ccc2c(c1)[C@H](NC(=O)OC(C)C)C[C@H](C)N2C(C)=O [compound 60] |
| 77 | 77 | 6.0 | 62 | 77 | 41 | – | CC(=O)Nc1cccc(-c2ccc3c(c2)[C@H](NC(=O)c2ccccc2)C[C@H](C)N3C(C)=O)c1 [compound 62] |
| 8.1 | 2 | 4.1 | 11 | 7.3 | 10 | – | CC(=O)Nc1cccc(-c2ccc3c(c2)[C@H](NC(=O)Cc2ccccc2)C[C@H](C)N3C(C)=O)c1 [compound 64] |
| – | – | 1.4 | – | – | 7.8 | – | CC(=O)Nc1cccc(-c2ccc3c(c2)[C@H](NC(=O)C(C)C)C[C@H](C)N3C(C)=O)c1 [compound 65] |
| 71 | 36 | 2.0 | 77 | 78 | 78 | – | COc1ccc(C(=O)N[C@@H]2C[C@H](C)N(C(C)=O)c3ccc(-c4cccc(NC(C)=O)c4)cc32)cc1 [compound 66] |
| 24 | 18 | 1.4 | 36 | 60 | 11 | – | CCC(=O)N[C@@H]1C[C@H](C)N(C(C)=O)c2ccc(-c3cccc(NC(C)=O)c3)cc21 [compound 67] |
| – | – | 4.9 | – | – | 11 | – | CC(=O)Nc1cccc(-c2ccc3c(c2)[C@H](NC(=O)C(C)C)C[C@H](C)N3C(C)=O)c1 [compound 71] |
| 51 | 51 | 1.0 | 27 | 39 | 51 | – | CC(=O)Nc1cccc(-c2ccc3c(c2)[C@H](NC(=O)c2ccc(Cl)cc2)C[C@H](C)N3C(C)=O)c1 [compound 72] |
| 0.37 | 0.04 | 7.2 | 0.09 | 0.16 | – | 0.33 | CCC(=O)Nc1cccc(-c2ccc3c(c2)[C@H](NC(=O)OC(C)C)C[C@H](C)N3C(C)=O)c1 [compound 115] |
| 1.2 | 0.38 | 7.0 | 0.28 | 2.3 | – | 1.2 | CC(=O)N1c2ccc(-c3cccc(NC(=O)CCc4ccccc4)c3)cc2[C@H](NC(=O)OC(C)C)C[C@@H]1C [compound 116] |
| 0.6 | 0.1 | 39 | 0.23 | 0.52 | – | 1.2 | CC(=O)N1c2ccc(-c3cccc(NCc4ccccc4)c3)cc2[C@H](NC(=O)OC(C)C)C[C@@H]1C [compound 117] |
